This note sets out measurements from PMC9050848, “Carbamoyl-N-aryl-imine-urea: a new framework to obtain a putative leishmanicidal drug-candidate” (RSC Advances, 2020).

Series [1] is described as follows: Toxicity in treated infected mice (survival, spleen weight, serum biochemistry). It counts as in vivo. Conditions: 30 μmol per kg per day × 28 days. As to the method: The survival of BALB/c mice infected with L. amazonensis untreated and treated during 28 days with the daily dose of 30 μmol kg^−1 with meglumine antimoniate, miltefosine and 10e (LASSBio-1736) was analyzed. Animal mortality was not observed for the groups treated with 10e and miltefosine, while 20% of death was identified from the 25th day of treatment with meglumine antimoniate (Fig. 11). After the end of treatment, the animal's toxicity was investigated looking for any alterations on spleen weight and on alanine aminotransferase (ALT), aspartate aminotransferase (AST), creatinine (CREA) and urea serum levels.
This study (protocol number 2013.02) was approved by the Ethics Committee for Animal Experimentation of the Federal University of Alagoas (Brazil). All animals received humane care in compliance with the ‘Principles of laboratory animal care’ formulated by the National Society for Medical Research and the ‘Guide for the care and use of laboratory animals’ prepared by the National Academy of Sciences (Washington, DC). Then, 1 × 10^5 stationary promastigotes (5 days of culture in Schneider's medium) of L. amazonensis were inoculated subcutaneously into the right ear dermis of 6 week-old female BALB/c mice weighing ca. 20 g. and later treated with 10e (i.p.), miltefosine (p.o.) or meglumine antimoniate (i.p.) at 30 μmol kg^−1 × 28 days. The vehicle to solubilize 10e (LASSBio-1736) and standard drugs was Tween 20 (50 μL) and sterile water for injection, which was also administrated by i.p. route in two controls groups (non-infected control and infected control). The lesion size was measured using a paquimeter.[32] The parasite loads of infected ears and draining lymph nodes were determined using a quantitative limiting-dilution assay.[33] Toxicity was also evaluated due to alterations on spleen weight and by biochemistry dosages in plasma, performed according to the manufacturer's instructions (Doles, BRA). Data obtained from experiments were expressed as the mean ± S.E.M. and statistical differences between the treated and the vehicle groups of experiments were evaluated by ANOVA and Dunnett hoc tests.

A short description of series [2]: Plasma stability (UPLC-MS/MS recovery). It counts as in vitro ADME. Conditions: 4 hours, 37 °C, rat plasma diluted 1:1 with PBS pH 7.4. As to the method:
To investigate the potential plasma instability of the carbamoyl-N-arylimine-urea subunit, designed as a new peptide mimetic framework, compound 10e (LASSBio-1736) was selected to investigate its plasma stability,[21,22] previously to the evaluation of its in vivo leishmanicidal effect. Quantitation of 10e (LASSBio-1736), benzocaine standard (positive control; it means a substrate drug for plasma hydrolysis) and ketoconazole (internal standard) was determined by UPLC-MS/MS, after incubation of the compounds at 0, 30, 60, 120 and 240 min with rat plasma, and measuring the peak areas in three different experiments.
For analysis of plasma stability, 5 μL (250 ng mL^−1) of a concentrated solution of 10e (LASSBio-1736) or the positive control benzocaine (stock concentration = 10 000 ng mL^−1 solubilized in DMSO) was added in 195 μL of rat plasma solution (1 : 1) diluted with PBS (pH 7.4). […] The supernatant (400 μL) were placed in 2 mL vials, and analyzed by UPLC-MS/MS. […]
Detection in single reaction monitoring (SRM) mode was used for determination of the LASSBio-1736 (10e) m/z 419.1 → 205.0, benzocaine m/z 166.1 → 137.9 and ketoconazole (IS) 532.1 → 490.3, with a tolerance of mass deviation of 6 ppm, operating in positive ionization mode. The data were acquired using TraceFinder 3.2. software (Thermo Fisher Scientific, Waltham, USA), and analyzed using GraphPad Prism 5 program.

The subject of series [3] is L. braziliensis intracellular amastigotes. The series is described as follows: Leishmanicidal activity against intracellular amastigote forms of L. braziliensis in J774.A1 macrophages. It counts as cell-based. Conditions: Leishmania braziliensis. The text has this:
Further, the leishmanicidal activity against intracellular amastigotes forms of L. braziliensis were also investigated (Table 2).
Promastigotes of L. amazonensis (MHOM/BR/77/LTB0016) were obtained from Dr Eduardo Caio Torres dos Santos at Oswaldo Cruz Institute – Fiocruz. Promastigotes of L. braziliensis (MHOM/BR/01/BA788) were obtained from Dr Valéria de Matos Borges at Gonçalo Moniz Research Center – Fiocruz. The parasites were maintained in vitro in Schneider's medium, supplemented with 10% FBS and 2% human urine at 27 °C in BOD incubator.
Initially, compounds 9a–e and 10a–e were evaluated at screening concentration of 30 μM against L. amazonensis, using DMSO 0.03% as vehicle control, since this was the DMSO concentration (vehicle) remaining in each well with the tested compounds. […] Vehicle control used was DMSO 0.1%, since this was the concentration of DMSO (vehicle) existing in each well with the tested substances in the highest concentration used.
To assess the activity of the test derivatives against the amastigote stage of L. amazonensis and L. braziliensis the model of infection in coverglass was realized.[31] The murine macrophages (J774.A1 cell line) were prepared in 24-well cell culture plate (flat bottom, clear, Corning) at 2 × 10^5 adherent cells per well, infected with 2 × 10^6 promastigotes in glass coverslips placed inside 1 mL medium culture. The cultures were cultured or not with the test derivatives or reference drugs, and kept for 24 h at 37 °C, 5% CO2. After 24 h of incubation, the coverslips were washed, stained with Giemsa–May–Grünwald, and intracellular amastigotes were counted in 100 macrophages, using an optical microscope, on the objective of 100×. Thus, during the counting of 100 macrophages, the amount of amastigotes present within these defence cells was also determined. Data obtained from in vitro experiments were expressed as the mean ± S.E.M. of duplicate cultures of representative assays. Statistical differences between the treated and the control groups were evaluated by ANOVA and Dunnett hoc tests. Differences with a p value < 0.05 or lower were considered significant.

For `O=C(N/N=C/c1ccc(C(F)(F)F)cc1)NNC(=O)c1ccc(Cl)cc1Cl` [LASSBio-1736 (10e), 2,4-dichloro-phenylcarbamoyl-N-4-trifluoromethylphenylimine-urea], the “Serum levels of ALT, AST, creatinine and urea” value in series [1] (after end of treatment, i.p.) was “did not significantly interfere”. In series [1] (last day of treatment), the Spleen weight result is “did not alter animal's spleen weight”. Moreover, the “Compound recovery after incubation with rat plasma” value in series [2] was “completely recovered”. Besides, the IC50 in series [3] (J774.A1, 24 h, read-out: IC50 (concentration required to give 50% death of parasites)) came to 5.3 ± 2.6 µM. Besides, the Emax in series [3] (J774.A1, L. braziliensis intracellular amastigotes, maximum toxicity vs 0.1% DMSO group, read-out: Maximum effect (% ± S.E.M.)) was determined as 57.2 ± 5.2%.
